Experimental data published in patent US20260034125A1, “N-PHENYL-1-(PHENYLSULFONYL)PIPERIDIN-4-AMINE DERIVATIVES AS CCR6 INHIBITORS” (priority 2023, published 2026).

What was measured:
Format in all cases: cell-based
human CCR6 [1] = biological target: T1, human CCR6 (Homo sapiens, UniProt P51684); experiment: CHO-K1 CCR6 chemotaxis assay towards CCL20; settings: relative -LogIC50; CHO-K1 cells overexpressing human CCR6, 100 ng/ml CCL20, Transwell, 4 h
T1 sequence (P51684 1-374): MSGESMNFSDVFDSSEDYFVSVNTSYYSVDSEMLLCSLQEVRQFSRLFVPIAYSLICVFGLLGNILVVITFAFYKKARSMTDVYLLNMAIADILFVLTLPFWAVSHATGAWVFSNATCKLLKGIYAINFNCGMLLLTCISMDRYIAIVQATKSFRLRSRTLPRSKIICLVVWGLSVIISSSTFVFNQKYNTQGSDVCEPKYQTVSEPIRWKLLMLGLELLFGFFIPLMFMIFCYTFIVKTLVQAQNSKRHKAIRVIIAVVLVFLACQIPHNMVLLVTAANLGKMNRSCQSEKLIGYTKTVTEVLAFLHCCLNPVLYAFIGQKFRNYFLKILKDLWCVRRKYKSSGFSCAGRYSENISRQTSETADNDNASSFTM
Excerpt: Cells overexpressing human CCR6 were used in the chemotaxis assay (DiscoverX, CAMP Hunter™ CHO-K1 CCR6 Gi Cell Line). Growth medium of these cells consisted of DMEM/F12, non-essential Amino acids (1×NEAA, Gibco 11140050), 10% FBS and 1× pen/strep (Gibco 15140). For the chemotaxis assay, Corning Transwell plates were used with a pore size of 8 μm (Corning 351164). Cells were harvested using trypsin and diluted to 4*10^6 cells/ml in chemotaxis medium (DMEM, 0.25% BSA, pen/strep). Compounds were four-fold serially diluted in DMSO. Further dilutions were made in chemotaxis medium. Cells were incubated with test compounds for 30 min at 37° C. prior to initiation of the assay (2*10^6 cells/ml). Final DMSO concentration in the assay was 0.2%. Wells of the Transwell plates were filled with 200 μl chemotaxis medium containing 100 ng/ml CCL20 (R&D systems 360-MP). 50 μl of the cell/compound suspension was added to the inserts of the Transwell plates (100,000 cells/insert). The Transwell plates were placed in an incubator at 37° C., 5% CO2 for 4 h. After 4 h, the number of migrated cells was quantified using CellTiter Glo (Promega). Percentage inhibition values were calculated based on the low and high signal obtained with 0.2% DMSO in chemotaxis medium without and with CCL20, respectively. The relative-LogIC50 was determined with GraphPad Prism 9 using a four-parameter dose-response model.

human CCR6 [2] = biological target: T1, human CCR6; experiment: Human CCR6-Cre reporter assay; design: The second construct contained the open reading frame of human CCR6 in the pUNO1 backbone; host or cells: 293 FT cells; settings: relative -LogIC50; transfected 293 FT cells, 6 μM Forskolin, 6 nM CCL20, luciferase readout, 5h
Procedure: 293 FT cells were transfected with 2 constructs using TransIT-293 (Mirus). The first construct (pGL4.29, Promega) expressed the luciferase reporter gene luc2P in response to the binding of cAMP-induced CREB to the CRE element in its promoter. The second construct contained the open reading frame of human CCR6 in the pUNO1 backbone under the control of an enhanced CMV promoter (In VivoGen). 48h after transfection, cells were harvested and diluted to 750,000 cells/ml in culture medium (DMEM, 10% FBS, 1× pen/strep (Gibco 15140)). Compounds were 2.5-fold serially diluted in DMSO. Further dilutions were made in assay medium (DMEM, 10% FBS, 1× pen/strep, 6 μM Forskolin, 6 nM CCL20). 4 μl of the compound solution was added to a white MW384 plate, followed by 20 μl of the cell suspension. Final DMSO concentration in the assay was 0.1%. The MW384 plate was placed in an incubator at 37° C., 5% CO2 for 5h. Luciferase activity was determined by addition of 24 μl of a 2.5× diluted BriteLite luciferase solution (Perkin Elmer), followed by luminescence measurement using a VICTOR Plate reader (Perkin Elmer). […] The relative-LogIC50 was determined with GraphPad Prism 9 using a four-parameter dose-response model.

Human CD4+ T cells = experiment: CD4+ T cell chemotaxis assay towards CCL20; settings: relative -LogIC50, 150 ng/ml CCL20, Transwell, 3 h
Excerpt: Human CD4+ T cells were isolated from buffy coats of healthy donors using a CD4+ T Cell Isolation Kit (Miltenyi Biotec130-096-533). Isolated T cells were stimulated overnight with anti-CD3 and anti-CD28 antibodies (Biolegend 300314/302934) in growth medium (RPMI1640, 10% heat-inactivated FBS, 1× pen/strep (Gibco 15140)). For the chemotaxis assay, Corning Transwell plates were used with a pore size of 5 μm (Corning 3388). T cells were counted and diluted to 6*10^6 cells/ml in chemotaxis medium (RPMI1640, 1% BSA, pen/strep). Compounds were four-fold serially diluted in DMSO. Further dilutions were made in chemotaxis medium. Cells were incubated with test compounds for 30 min at 37° C. prior to initiation of the assay (3*10^6 cells/ml). Final DMSO concentration in the assay was 0.2%. Wells of the Transwell plates were filled with 200 μl chemotaxis medium containing 150 ng/ml CCL20 (R&D systems 360-MP). 50 μl of the cell/compound suspension was added to the inserts of the Transwell plates (150,000 cells/insert). The Transwell plates were placed in an incubator at 37° C., 5% CO2 for 3 h. After 3 h, the number of migrated cells was quantified using CellTiter Glo (Promega). Percentage inhibition values were calculated based on the low and high signal obtained with 0.2% DMSO in chemotaxis medium without and with CCL20, respectively. The relative −LogIC50 was determined with GraphPad Prism 9 using a four-parameter dose-response model.

| IC50 (human CCR6 [1]) [nM] | IC50 (human CCR6 [2]) [nM] | IC50 (Human CD4+ T cells) [nM] | SMILES |
| --- | --- | --- | --- |
| 3.98 | 100 |  | CC(C)c1cnc2ccc(-c3ccc(S(=O)(=O)[C@H]4CC[C@H](Nc5ccc(C6(C(F)(F)F)CC6)cc5)CC4)cc3)cn12 [Example 20, N-[trans-4-{4-[3-(propan-2-yl)imidazo[1,2-a]pyridin-6-yl]benzenesulfonyl}cyclohexyl]-4-[1-(trifluoromethyl)cyclopropyl]aniline] |
| 39.8 | 100 |  | O=S(=O)(c1ccc(-c2ccc3nccn3c2)cc1)[C@H]1CC[C@H](Nc2ccc(C3(C(F)(F)F)CC3)cc2)CC1 [Example 17, N-[trans-4-(4-{imidazo[1,2-a]pyridin-6-yl}benzenesulfonyl)cyclohexyl]-4-[1-(trifluoromethyl)cyclopropyl]aniline] |
|  | 63.1 | 3.98 | CC(C)c1nnc2cnc(-c3ccc(S(=O)(=O)N4CCC(Nc5ccc(C6(C(F)(F)F)CC6)cc5)CC4)cc3)cn12 [Example 41, 1-{4-[3-(propan-2-yl)-[1,2,4]triazolo[4,3-a]pyrazin-6-yl]benzenesulfonyl}-N-{4-[1-(trifluoromethyl)cyclopropyl]phenyl}piperidin-4-amine] |
| 25.1 | 79.4 |  | CNC(=O)c1cccc(-c2ccc(S(=O)(=O)N3CCC(Nc4ccc(C5(C(F)(F)F)CC5)cc4)CC3)cc2)c1 [Example 4, N-methyl-4′-{[4-({4-[1-(trifluoromethyl)cyclopropyl]phenyl}Amino)piperidin-1-yl]sulfonyl}-[1,1′-biphenyl]-3-carboxamide] |
| 63.1 | 79.4 |  | Cc1cnc2ccc(-c3ccc(S(=O)(=O)N4CCC(Nc5ccc(C6(C(F)(F)F)CC6)cc5)CC4)cc3)cn12 [Example 3, 1-(4-{3-methylimidazo[1,2-a]pyridin-6-yl}benzenesulfonyl)-N-{4-[1-(trifluoromethyl)cyclopropyl]phenyl}piperidin-4-amine] |
|  | 200 | 79.4 | CC(C)c1nnc2ccc(-c3ccc(S(=O)(=O)N4CCC(Nc5ccc(C6(C#N)CC6)cn5)CC4)cc3)cn12 [Example 31, 1-{6-[(1-{4-[3-(propan-2-yl)-[1,2,4]triazolo[4,3-a]pyridin-6-yl]benzenesulfonyl}piperidin-4-yl)amino]pyridin-3-yl}cyclopropane-1-carbonitrile] |
|  | 100 | 2.51 | Cc1n[nH]c2ncc(-c3ccc(S(=O)(=O)[C@H]4CC[C@H](Nc5ccc(C6(C(F)(F)F)CC6)cc5)CC4)cc3)cc12 [Example 22, N-[(trans)-4-(4-{3-methyl-1H-pyrazolo[3,4-b]pyridin-5-yl}benzenesulfonyl)cyclohexyl]-4-[1-(trifluoromethyl)cyclopropyl]aniline] |
| 251 | 251 |  | N#Cc1c[nH]c2ccc(-c3ccc(S(=O)(=O)N4CCC(Nc5ccc(C6CC6)cc5)CC4)cc3)cc12 [Example 12, 5-[4-({4-[(4-cyclopropylphenyl)Amino]piperidin-1-yl}sulfonyl)phenyl]-1H-indole-3-carbonitrile] |
|  | 63.1 | 1.58 | Cc1c[nH]c2ncc(-c3ccc(S(=O)(=O)[C@H]4CC[C@H](Nc5ccc(C6(C(F)(F)F)CC6)cc5)CC4)cc3)cc12 [Example 21, N-[(trans)-4-(4-{3-methyl-1H-pyrrolo[2,3-b]pyridin-5-yl}benzenesulfonyl)cyclohexyl]-4-[1-(trifluoromethyl)cyclopropyl]aniline] |
|  | 31.6 | 3.16 | CC(C)c1nnc2ccc(-c3ccc(S(=O)(=O)N4CCC(Nc5ccc(C6(C(F)(F)F)CC6)cn5)CC4)cc3)cn12 [Example 36, N-(1-{4-[3-(propan-2-yl)-[1,2,4]triazolo[4,3-a]pyridin-6-yl]benzenesulfonyl}piperidin-4-yl)-5-[1-(trifluoromethyl)cyclopropyl]pyridin-2-amine] |
|  | 126 | 6.31 | Cc1nnc2ccc(-c3ccc(S(=O)(=O)N4CCC(Nc5ccc(C6(C(F)(F)F)CC6)cc5)CC4)cc3)cn12 [Example 42, 1-(4-{3-methyl-[1,2,4]triazolo[4,3-a]pyridin-6-yl}benzenesulfonyl)-N-{4-[1-(trifluoromethyl)cyclopropyl]phenyl}piperidin-4-amine] |
|  | 200 | 251 | CC(C)c1nnc2ccc(-c3ccc(S(=O)(=O)[C@H]4CC[C@H](Nc5ccc(C6(C#N)CC6)cn5)CC4)cc3)cn12 [Example 30, 1-(6-{[(trans)-4-{4-[3-(propan-2-yl)-[1,2,4]triazolo[4,3-a]pyridin-6-yl]benzenesulfonyl}cyclohexyl]amino}pyridin-3-yl)cyclopropane-1-carbonitrile] |
|  | 100 | 5.01 | O=S(=O)(c1ccc(-c2ccc3nccn3c2)cc1)N1CCC(Nc2ccc(C3(C(F)(F)F)CC3)cn2)CC1 [Example 37, N-[1-(4-{imidazo[1,2-a]pyridin-6-yl}benzenesulfonyl)piperidin-4-yl]-5-[1-(trifluoromethyl)cyclopropyl]pyridin-2-amine] |
|  | 200 | 126 | Cc1cc(-c2ccc(S(=O)(=O)N3CCC(Nc4ccc(C5(C#N)CC5)cn4)CC3)cc2)cn2c(C(C)C)nnc12 [Example 32, 1-{6-[(1-{4-[8-methyl-3-(propan-2-yl)-[1,2,4]triazolo[4,3-a]pyridin-6-yl]benzenesulfonyl}piperidin-4-yl)amino]pyridin-3-yl}cyclopropane-1-carbonitrile] |
|  | 398 | 1580 | N#CC1(c2ccc(NC3CCN(S(=O)(=O)c4ccc(-c5ccc6n[nH]c(=O)n6c5)cc4)CC3)nc2)CC1 [Example 35, 1-(6-{[1-(4-{3-oxo-2H,3H-[1,2,4]triazolo[4,3-a]pyridin-6-yl}benzenesulfonyl)piperidin-4-yl]amino}pyridin-3-yl)cyclopropane-1-carbonitrile] |
|  | 100 | 12.6 | O=c1[nH]nc2ccc(-c3ccc(S(=O)(=O)N4CCC(Nc5ccc(C6(C(F)(F)F)CC6)cc5)CC4)cc3)cn12 [Example 43, 6-(4-{[4-({4-[1-(trifluoromethyl)cyclopropyl]phenyl}amino)piperidin-1-yl]sulfonyl}phenyl)-2H,3H-[1,2,4]triazolo[4,3-a]pyridin-3-one] |
